{
  "source": "patent US20080182267A1",
  "about": "“METHOD FOR PREDICTING A DRUG TRANSPORT CAPABILITY BY ABCG2 POLYMORPHISMS” (BANYU PHARMACEUTICAL CO., Ltd., priority 2002, published 2008)",
  "key": {"[1]": {"system": "LLC-PK1 cell line (C4) transfected with vector alone", "assay": "Cytotoxicity by sulforhodamine B dye-staining, clone C4 (vector alone)", "assay_type": "cell-based, porcine", "conditions": "Sus scrofa, no ABCG2, 72 hours, 37° C., read-out: IC50 for cell viability", "description": "(§1) Among the polymorphic mutations identified in Example 1, two mutations—G34A and C421A—having a high possibility to affect the function of the ABCG2 polypeptide were prepared and introduced into animal cells as an endeavor to analyze their functions. Preparation of the mutated ABCG2 genes was conducted by PCR and a point mutation was introduced. […] As a control, a plasmid expressing the wild type (WT) ABCG2 and the vector plasmid pcDNA3.1(+) alone without the ABCG2 gene were used and those four kinds of expression plasmids were introduced to an animal cell (porcine kidney cell line) LLC-PK1 by lipofection method (Lipofectamine; Gibco BRL). Stable transfectants were selected with 1,500 μg/ml of Geneticin (Gibco BRL) for two weeks and cell lines were established. To determine the expressed level of ABCG2 in each cell line, total RNA was extracted from each transfectant cells and HeLa cells with Trizol (Gibco BRL). Seven microgram of the total RNA extracted from each clone of cell and full length ABCG2 cDNA (2.2 kb) probe labeled with ^32P were used for Northern hybridization. […]\n(§2) All of the incubations were carried out at 37° C. under the humidified atmosphere containing 5% of carbon dioxide. The cytotoxicity of anticancer drugs was determined by sulforhodamine B dye-staining method and compared with each other. […]"}, "ABCG2 (wild type)": {"system": "ABCG2 (wild type)", "assay": "Cytotoxicity by sulforhodamine B dye-staining, clone 1-58 (wild type ABCG2)", "conditions": "pig", "description": "as §1, §2"}, "[2]": {"system": "LLC-PK1 cell line (1-58) expressing the wild type ABCG2", "assay": "Cytotoxicity by sulforhodamine B dye-staining, clone 1-58 (wild type ABCG2)", "conditions": "among the four transfectant clones C4, 1-58, 2-51, 3-28", "description": "as §1, §2"}, "ABCG2 (Val12Met mutant)": {"system": "ABCG2 (Val12Met mutant)", "assay": "Cytotoxicity by sulforhodamine B dye-staining, clone 2-51 (ABCG2 Val12Met)", "conditions": "pig", "description": "as §1, §2"}, "ABCG2 (Gln141Lys mutant)": {"system": "ABCG2 (Gln141Lys mutant)", "assay": "Cytotoxicity by sulforhodamine B dye-staining, clone 3-28 (ABCG2 Gln141Lys)", "conditions": "pig", "description": "as §1, §2"}},
  "data": [
    {"smiles": "CC[C@@]1(O)C(=O)OCc2c1cc1n(c2=O)Cc2cc3ccccc3nc2-1", "note": "[Camptothecin, camptothecin]", "values": [
      {"measurement": "IC50", "setting": "[1]", "value": 8.7, "unit": "nM"},
      {"measurement": "IC50 at 72 h", "setting": "ABCG2 (wild type)", "value": 21.3, "unit": "nM"},
      {"measurement": "difference in terms of the resistance among the cells", "setting": "[2]", "value": "no significant difference"},
      {"measurement": "IC50 at 72 h", "setting": "ABCG2 (Val12Met mutant)", "value": 12.2, "unit": "nM"},
      {"measurement": "IC50 at 72 h", "setting": "ABCG2 (Gln141Lys mutant)", "value": 26.8, "unit": "nM"}
    ]}
  ]
}
